The text below walks through data of patent US20190353644A1, “PROFILE ANALYSIS OF CELL POLARITY” (Wake Forest University Health Sciences, priority 2018, published 2019).

Test [1] deals with HMT-3522 S1 mammary epithelial cells acini. Put plainly: Visual scoring of apical polarity markers in 3D acini cultures (conventional methods). The class given is cell-based. As to conditions: elevated levels of leptin; measured with conventional methods (Tenvooren et al.). An excerpt:
Non-neoplastic HMT-3522 S1 mammary epithelial cells were obtained from Dr. Mina Bissell (Lawrence Berkeley Laboratory) and propagated between passages 54 and 60 in H14 medium. Acinar differentiation was achieved by culturing the cells in 3D on top of a layer of Matrigel matrix (Corning) in chambered slides (Millipore), as described (10).
Fluorescent signals of polarity markers in 3D cell cultures were scored visually for apical localization using an Olympus IX83 epifluorescence microscope equipped with a 60× oil immersion objective (NA=1.35). At least 100 acini were scored per condition in each experiment. Alternatively, fluorescence images were taken with the CMOS camera (Hamamatsu, ORCA-Flash4.0) on this microscope, using a 10× (NA=0.3) objective. The ImageJ script was used to extract acini from DAPI images and to calculate the radial distribution of the signals. 150-450 acini were analyzed per condition.

For test [2], the system named is mammary epithelial cell line stably expressing GFP-ZO-1. The test can be described thus: Live cell imaging of GFP-ZO-1 mammary epithelial cell line. The class given is cell-based. As to conditions: leptin treatment. An excerpt: Immunostaining techniques have certain limitations, including (1) time consumption, (2) costs of reagents, and (3) poor time resolution. An alternative approach has been developed based on live cell imaging. Immunostaining for polarity markers is replaced by expression of polarity marker proteins tagged with a fluorescent protein (e.g., GFP-ZO-1). A mammary epithelial cell line stably expressing GFP-ZO-1 has been generated and characterized (FIGS. 9A-9B). The cell line retains apical-basal polarity (which is disturbed by leptin treatment) and expresses the recombinant marker at physiological levels. As a more flexible alternative to genetically encoded fluorescent markers of polarity, a nontoxic actin dye compatible with live cell imaging (SiR-actin) has been used. Cells are stained for 1 h with a mix of SiR-actin and Hoechst (DNA dye) before imaging. Similar results were obtained with this approach compared to the fixed, immunostaining approach described in EXAMPLE 1.

Test [3] has as its system live S1 cell acini. Put plainly: Live cell imaging of acini stained with SiR-actin. As to conditions: leptin treatment as in EXAMPLE 3. The class given is cell-based. An excerpt: RadialProfiler can be applied to quantify epithelial markers detected by immunofluorescence (as described in Tenvooren et al., Oncogene (2019)), or to quantify cortical actin labeled in live acini with the SiR-actin dye (Cytoskeleton Inc.). DAPI and Hoechst are used to counterstain cell nuclei in fixed and live experiments, respectively.
For imaging, an automated IX83 microscope (Olympus) equipped with a motorized ultrasonic stage and a TruFocus Z drift compensation module was used. For RadialProfiler analyses, images are taken with either 10× (NA=0.3) or 20× (NA=0.45) air lenses, using a sCMOS camera (ORCA-Flash4.0, Hamamatsu). The RadialProfiler software was also tested with images acquired using different imaging systems, including a high content imager (Perkin Elmer Operetta CLS). RadialProfiler and the underlying approach to analyze polarity are agnostic to the imaging system. Fields of view are chosen either in an automated fashion or based on nuclear signals (DAPI or Hoechst) to avoid bias. For live cell analyses, acini are maintained at 37° C. and 5% CO2 using a stage-top incubator (Tokai Hit). The minimal resolution needed depends on the number of radial terraces used by RadialProfiler. […] It was determined that using 5-10 bins that are 2 pixels wide yields accurate measurements. […]

Test [4] concerns HMT-3522 S1 mammary epithelial cells acini. The test can be described thus: Radial profile (RP) analysis of ZO-1 distribution in acini. The class given is cell-based. On the procedure:
The concept of radial profile (RP) analysis of epithelial polarity was tested. A macro script and two plugins for the open image analysis software ImageJ (imagej.nih.gov/ij/) were developed. Subsequently, computer code was translated for the MATLAB® computing platform and improvements were made. This new code is referred to as the RadialProfiler algorithm. MATLAB® is a more robust and versatile computing platform that allows important improvement to the approach. In particular, MATLAB® can easily process entire image folders in batch using looping functions. Batch processing has been included in the new MATLAB® version of the RP analysis that enables automated analyses of series of images. The code was designed to analyze two-channel fluorescence microscopy images. The first channel corresponds to DAPI staining of cell nuclei, whereas the second channel corresponds to an apical polarity marker (e.g., ZO-1, Par3, or actin) detected by immunofluorescence. […] Initially, two plugins were developed to compare two approaches to quantify apical polarity: (1) an analysis of the RP distribution of the signals and (2) the computation of the moment of inertia (MOI). […]
Fluorescent signals of polarity markers in 3D cell cultures were scored visually for apical localization using an Olympus IX83 epifluorescence microscope equipped with a 60× oil immersion objective (NA=1.35). […]

Test [5] concerns apical polarity. As to conditions: Yue et al., Biophys. J. 102:1215 (2012); cited from earlier work.

As to leptin, the apical polarity entry in test [1] is “loss of apical polarity”. In addition, the “apical-basal polarity of GFP-ZO-1 cell line” value in test [2] is “disturbed”. Further, in test [3], the “apical SiR-actin signal” value is listed as “loss of apical SiR-actin signal”. Further, in test [4] (acini treated 72 h with vehicle or leptin (100 ng/ml), FIG. 8C, P<0.0001), the “averaged RP curves and integrated values (ZO-1 radial distribution)” value is recorded as “distinct for the two treatments”.
In the case of “lipopolysaccharide [LPS, reference compound]”, in test [4] (breast acini exposed to LPS, FIG. 8F), the polarity score result was “decrease in the polarity score”.
As to omega-6 fatty acids, the apical polarity entry in test [5] was “disrupted”.
